Data as given in a compilation of properties of binary mixtures (doi:10.1524/zpch.2013.0326).

Experiment: xn = mol fraction of the nth substance listed
Conditions: 101 kPa

Cc1ccccc1 + CCCCCCCC[n+]1ccc2ccccc2c1.O=S(=O)([N-]S(=O)(=O)C(F)(F)F)C(F)(F)F
x1 = 1
Conditions	viscosity [mPa·s]
298.15 K	0.56
318.15 K	0.45
328.15 K	0.4
338.15 K	0.37
348.15 K	0.33

c1ccccc1 + CCCCCCCC[n+]1ccc2ccccc2c1.O=S(=O)([N-]S(=O)(=O)C(F)(F)F)C(F)(F)F
x1 = 1
Conditions	viscosity [mPa·s]
298.15 K	0.6
318.15 K	0.47
338.15 K	0.37
348.15 K	0.34

c1ccncc1 + CCCCCCCC[n+]1ccc2ccccc2c1.O=S(=O)([N-]S(=O)(=O)C(F)(F)F)C(F)(F)F
x1 = 1
Conditions	viscosity [mPa·s]
218.15 K	0.67
298.15 K	0.89
308.15 K	0.76
328.15 K	0.59
348.15 K	0.52

c1ccsc1 + CCCCCCCC[n+]1ccc2ccccc2c1.O=S(=O)([N-]S(=O)(=O)C(F)(F)F)C(F)(F)F
x1 = 1
Conditions	viscosity [mPa·s]
298.15 K	0.62
308.15 K	0.54
318.15 K	0.48
328.15 K	0.42
338.15 K	0.38

CCCCCCCC[n+]1ccc2ccccc2c1.O=S(=O)([N-]S(=O)(=O)C(F)(F)F)C(F)(F)F + Cc1ccccc1
viscosity [mPa·s]
Conditions	298.15 K	308.15 K	318.15 K	328.15 K	338.15 K	348.15 K
x2 = 0	369	191	108.7	67.9	–	31.62
x2 = 0.0818	–	–	94.1	58.9	39.34	27.64
x2 = 0.1949	200	111.3	–	43.52	29.87	21.41
x2 = 0.2746	143.3	–	50.3	33.2	23.14	16.87
x2 = 0.3638	96.8	58.2	37.73	–	18.51	13.76
x2 = 0.4295	67.4	–	27.64	–	14.19	10.81
x2 = 0.4775	–	–	22.12	15.77	–	9
x2 = 0.4902	–	31.17	21.24	15.26	11.43	8.83
x2 = 0.5467	35.44	23.45	16.48	–	9.23	7.21
x2 = 0.6148	22.18	15.4	–	8.46	6.59	5.28
x2 = 0.7004	12.67	9.25	7.03	–	4.44	3.65
x2 = 0.7634	7.73	5.89	4.64	3.76	3.11	2.62
x2 = 0.8672	3.2	2.62	–	1.88	1.65	1.48

CCCCCCCC[n+]1ccc2ccccc2c1.O=S(=O)([N-]S(=O)(=O)C(F)(F)F)C(F)(F)F + c1ccccc1
viscosity [mPa·s]
Conditions	298.15 K	308.15 K	318.15 K	328.15 K	338.15 K	348.15 K
x2 = 0	–	191	–	67.9	44.8	31.62
x2 = 0.0912	301	158.8	92	57.6	38.53	27.1
x2 = 0.1505	249	134.2	79.2	–	34.07	24.21
x2 = 0.295	150.9	85.5	52.8	34.86	24.3	17.61
x2 = 0.332	133.1	76.4	–	–	22.32	–
x2 = 0.4679	–	–	26.93	18.76	13.7	10.41
x2 = 0.5663	37.49	24.56	–	12.25	9.21	7.15
x2 = 0.654	21.25	14.55	10.5	7.91	6.15	–
x2 = 0.673	–	7.96	6.05	–	–	3.15
x2 = 0.7443	–	4.55	3.6	2.94	2.46	2.11
x2 = 0.8143	2.78	2.28	1.92	1.66	–	1.34
x2 = 0.8961	0.96	0.83	0.74	0.65	0.59	–
